# Experimental data from patent publication US10030047B2 (Hoffmann-La Roche Inc., priority 2015, dated 2018).
# Tested on: A. baumannii strain ATCC19606
# Assay: Minimum inhibitory concentration (MIC) determination, microbroth dilution (CLSI)
# Assay type: cell-based
# Details: Acinetobacter baumannii; A. baumannii ATCC19606; CAMHB; read after 20 hours; >=80% growth inhibition; read-out: ATCC19606 MIC
# Method in brief: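 CLSI broth microdilution in cation-adjusted Mueller Hinton broth with twofold compound dilutions and ~5×10^5 CFU/ml inoculum, incubated at 35±2 °C. MIC read after 20 h as lowest concentration inhibiting ≥80% of growth, by eye and OD 600 nm.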
row,MIC,Structure (SMILES)
1,4 µg/mL,"COc1ccc2c(c1)CNC(=O)[C@H](Cc1c[nH]c3ccccc13)N(C)C(=O)[C@H](CCCCN)NC(=O)[C@H](CCCN)NCc1cccnc1S2 [Example 61, (11S,14S,17S)-14-(4-Amino-butyl)-11-(3-amino-propyl)-17-(1H-indol-3-ylmethyl)-23-methoxy-16-methyl-2-thia-4,10,13,16,19-pentaaza-tricyclo[19.4.0.0*3,8*]pentacosa-1(25),3,5,7,21,23-hexaene-12,15,18-trione]"
2,0.12 µg/mL,"CN1C(=O)[C@H](CCCCN)NC(=O)[C@H](CCCN)NCc2cccnc2Sc2c(Cl)cc(C(F)(F)F)cc2CNC(=O)[C@@H]1Cc1c[nH]c2ccccc12 [Example 62, (11S,14S,17S)-14-(4-Amino-butyl)-11-(3-amino-propyl)-25-chloro-17-(1H-indol-3-ylmethyl)-16-methyl-23-trifluoromethyl-2-thia-4,10,13,16,19-pentaaza-tricyclo[19.4.0.0*3,8*]pentacosa-1(25),3,5,7,21,23-hexaene-12,15,18-trione]"
3,32 µg/mL,"CN1C(=O)[C@H](CCCCN)NC(=O)[C@H](CCCN)NCc2ccccc2Sc2cnccc2CNC(=O)[C@@H]1Cc1c[nH]c2ccccc12 [Example 63, (12S,15S,18S)-15-(4-Amino-butyl)-18-(3-amino-propyl)-12-(1H-indol-3-ylmethyl)-13-methyl-2-thia-5,10,13,16,19-pentaaza-tricyclo[19.4.0.0*3,8*]pentacosa-1(25),3,5,7,21,23-hexaene-11,14,17-trione]"
4,32 µg/mL,"CN1C(=O)[C@H](CCCCN)NC(=O)[C@H](CCCN)NCc2cc(F)ccc2Sc2c(Cl)cccc2CNC(=O)[C@@H]1Cc1c[nH]c2ccccc12 [Example 64, (12S,15S,18S)-15-(4-Amino-butyl)-18-(3-amino-propyl)-4-chloro-23-fluoro-12-(1H-indol-3-ylmethyl)-13-methyl-2-thia-10,13,16,19-tetraaza-tricyclo[19.4.0.0*3,8*]pentacosa-1(25),3,5,7,21,23-hexaene-11,14,17-trione]"
5,32 µg/mL,"Cc1cccc2c1Sc1ccc(F)cc1CN[C@@H](CCCN)C(=O)N[C@@H](CCCCN)C(=O)N(C)[C@@H](Cc1c[nH]c3ccccc13)C(=O)NC2 [Example 65, (12S,15S,18S)-15-(4-Amino-butyl)-18-(3-amino-propyl)-23-fluoro-12-(1H-indol-3-ylmethyl)-4,13-dimethyl-2-thia-10,13,16,19-tetraaza-tricyclo[19.4.0.0*3,8*]pentacosa-1(25),3,5,7,21,23-hexaene-11,14,17-trione]"
6,0.5 µg/mL,"CCc1ccc2c(c1)CNC(=O)[C@H](Cc1c[nH]c3ccccc13)N(C)C(=O)[C@H](CCCCN)NC(=O)[C@H](CCCN)NCc1ccccc1S2 [Example 66, (12S,15S,18S)-15-(4-Amino-butyl)-18-(3-amino-propyl)-6-ethyl-12-(1H-indol-3-ylmethyl)-13-methyl-2-thia-10,13,16,19-tetraaza-tricyclo[19.4.0.0*3,8*]pentacosa-1(25),3,5,7,21,23-hexaene-11,14,17-trione]"
7,0.12 µg/mL,"CN1C(=O)[C@H](CCCCN)NC(=O)[C@H](CCCN)NCc2cccnc2Sc2c(Cl)cc(Cl)cc2CNC(=O)[C@@H]1Cc1c[nH]c2ccccc12 [Example 67, (11S,14S,17S)-14-(4-Amino-butyl)-11-(3-amino-propyl)-23,25-dichloro-17-(1H-indol-3-ylmethyl)-16-methyl-2-thia-4,10,13,16,19-pentaaza-tricyclo[19.4.0.0*3,8*]pentacosa-1(25),3,5,7,21,23-hexaene-12,15,18-trione]"
8,0.5 µg/mL,"CN1C(=O)[C@H](CCCCN)NC(=O)[C@H](CCCN)NCc2cccnc2Sc2c(C(F)(F)F)ccc(Cl)c2CNC(=O)[C@@H]1Cc1c[nH]c2ccccc12 [Example 68, (11S,14S,17S)-14-(4-Amino-butyl)-11-(3-amino-propyl)-22-chloro-17-(1H-indol-3-ylmethyl)-16-methyl-25-trifluoromethyl-2-thia-4,10,13,16,19-pentaaza-tricyclo[19.4.0.0*3,8*]pentacosa-1(25),3,5,7,21,23-hexaene-12,15,18-trione]"
9,4 µg/mL,"CN1C(=O)[C@H](CCCCN)NC(=O)[C@H](CCCN)NCc2ccccc2Sc2ccc(-c3ccccc3)cc2CNC(=O)[C@@H]1Cc1c[nH]c2ccccc12 [Example 69, (12S,15S,18S)-15-(4-Amino-butyl)-18-(3-amino-propyl)-12-(1H-indol-3-ylmethyl)-13-methyl-6-phenyl-2-thia-10,13,16,19-tetraaza-tricyclo[19.4.0.0*3,8*]pentacosa-1(25),3,5,7,21,23-hexaene-11,14,17-trione]"
10,2 µg/mL,"CN1C(=O)[C@H](CCCCN)NC(=O)[C@H](CCCN)NCc2ccccc2Sc2ccc(C(C)(C)C)cc2CNC(=O)[C@@H]1Cc1c[nH]c2ccccc12 [Example 70, (12S,15S,18S)-15-(4-Amino-butyl)-18-(3-amino-propyl)-6-tert-butyl-12-(1H-indol-3-ylmethyl)-13-methyl-2-thia-10,13,16,19-tetraaza-tricyclo[19.4.0.0*3,8*]pentacosa-1(25),3,5,7,21,23-hexaene-11,14,17-trione]"
11,0.5 µg/mL,"COc1ccc2c(c1)CNC(=O)[C@H](Cc1c(C)[nH]c3ccccc13)N(C)C(=O)[C@H](CCCCN)NC(=O)[C@H](CCCN)NCc1ccccc1S2 [Example 71, (12S,15S,18S)-15-(4-Amino-butyl)-18-(3-amino-propyl)-6-methoxy-13-methyl-12-(2-methyl-1H-indol-3-ylmethyl)-2-thia-10,13,16,19-tetraaza-tricyclo[19.4.0.0*3,8*]pentacosa-1(21),3,5,7,22,24-hexaene-11,14,17-trione]"
12,64 µg/mL,"CC(C)c1ccc2c(c1)CNC(=O)[C@H](Cc1c[nH]c3ccccc13)N(C)C(=O)[C@H](CCCCN)NC(=O)[C@H](CCCN)NCc1ccccc1S2 [Example 72, (12S,15S,18S)-15-(4-Amino-butyl)-18-(3-amino-propyl)-12-(1H-indol-3-ylmethyl)-6-isopropyl-13-methyl-2-thia-10,13,16,19-tetraaza-tricyclo[19.4.0.0*3,8*]pentacosa-1(25),3,5,7,21,23-hexaene-11,14,17-trione]"
13,0.25 µg/mL,"Cc1[nH]c2ccccc2c1C[C@H]1C(=O)NCc2cc(C(F)(F)F)cc(Cl)c2Sc2ncccc2CN[C@@H](CCCN)C(=O)N[C@@H](CCCCN)C(=O)N1C [Example 74, (11S,14S,17S)-14-(4-Amino-butyl)-11-(3-amino-propyl)-25-chloro-16-methyl-17-(2-methyl-1H-indol-3-ylmethyl)-23-trifluoromethyl-2-thia-4,10,13,16,19-pentaaza-tricyclo[19.4.0.0*3,8*]pentacosa-1(25),3(8),4,6,21,23-hexaene-12,15,18-trione]"
14,0.12 µg/mL,"Cc1[nH]c2ccccc2c1C[C@H]1C(=O)NCc2c(C(F)(F)F)ccc(Cl)c2Sc2ncccc2CN[C@@H](CCCN)C(=O)N[C@@H](CCCCN)C(=O)N1C [Example 75, (11S,14S,17S)-14-(4-Amino-butyl)-11-(3-amino-propyl)-25-chloro-16-methyl-17-(2-methyl-1H-indol-3-ylmethyl)-22-trifluoromethyl-2-thia-4,10,13,16,19-pentaaza-tricyclo[19.4.0.0*3,8*]pentacosa-1(25),3(8),4,6,21,23-hexaene-12,15,18-trione]"
15,0.12 µg/mL,"Cc1[nH]c2ccccc2c1C[C@H]1C(=O)NCc2cc(Cl)cc(Cl)c2Sc2ncccc2CN[C@@H](CCCN)C(=O)N[C@@H](CCCCN)C(=O)N1C [Example 76, (11S,14S,17S)-14-(4-Amino-butyl)-11-(3-amino-propyl)-23,25-dichloro-16-methyl-17-(2-methyl-1H-indol-3-ylmethyl)-2-thia-4,10,13,16,19-pentaaza-tricyclo[19.4.0.0*3,8*]pentacosa-1(25),3(8),4,6,21,23-hexaene-12,15,18-trione]"
16,0.5 µg/mL,"CCN1C(=O)[C@H](CCCCN)NC(=O)[C@H](CCCN)NCc2cccnc2Sc2c(Cl)cc(C(F)(F)F)cc2CNC(=O)[C@@H]1Cc1c[nH]c2ccccc12 [Example 77, (11S,14S,17S)-14-(4-Amino-butyl)-11-(3-amino-propyl)-25-chloro-16-ethyl-17-(1H-indol-3-ylmethyl)-23-trifluoromethyl-2-thia-4,10,13,16,19-pentaaza-tricyclo[19.4.0.0*3,8*]pentacosa-1(25),3(8),4,6,21,23-hexaene-12,15,18-trione]"
17,0.25 µg/mL,"CCN1C(=O)[C@H](CCCCN)NC(=O)[C@H](CCCN)NCc2cccnc2Sc2c(Cl)ccc(Cl)c2CNC(=O)[C@@H]1Cc1c[nH]c2ccccc12 [Example 78, (11S,14S,17S)-14-(4-Amino-butyl)-11-(3-amino-propyl)-22,25-dichloro-16-ethyl-17-(1H-indol-3-ylmethyl)-2-thia-4,10,13,16,19-pentaaza-tricyclo[19.4.0.0*3,8*]pentacosa-1(25),3(8),4,6,21,23-hexaene-12,15,18-trione]"
18,0.25 µg/mL,"CCN1C(=O)[C@H](CCCCN)NC(=O)[C@H](CCCN)NCc2cccnc2Sc2c(Cl)ccc(C(F)(F)F)c2CNC(=O)[C@@H]1Cc1c[nH]c2ccccc12 [Example 79, (11S,14S,17S)-14-(4-Amino-butyl)-11-(3-amino-propyl)-25-chloro-16-ethyl-17-(1H-indol-3-ylmethyl)-22-trifluoromethyl-2-thia-4,10,13,16,19-pentaaza-tricyclo[19.4.0.0*3,8*]pentacosa-1(25),3(8),4,6,21,23-hexaene-12,15,18-trione]"
19,0.12 µg/mL,"CCN1C(=O)[C@H](CCCCN)NC(=O)[C@H](CCCN)NCc2cccnc2Sc2c(Cl)cc(Cl)cc2CNC(=O)[C@@H]1Cc1c[nH]c2ccccc12 [Example 80, (11S,14S,17S)-14-(4-Amino-butyl)-11-(3-amino-propyl)-23,25-dichloro-16-ethyl-17-(1H-indol-3-ylmethyl)-2-thia-4,10,13,16,19-pentaaza-tricyclo[19.4.0.0*3,8*]pentacosa-1(25),3(8),4,6,21,23-hexaene-12,15,18-trione]"
